Experimental data published in PubChem BioAssay AID1963873 (Molecular Pharmacology Branch, DTP, NCI, 2024).

Tested on: 276233-004-R-J1-PDC KRAS spheroids with HUVEC/MSC, viability
Test: Anticancer human tumor 276233-004-R-J1-PDC patient-derived colon adenocarcinoma cell line growth inhibition [KRAS2]
Settings: for IC50: curve of first compound; for viability, T/C: stronger effect = lower value
How it was run: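 KRAS-mutant tumor cells were grown as spheroids with HUVEC endothelial cells and human MSCs as stroma. Targeted agents were tested alone and with KRAS pathway inhibitors. Doses started at or near clinical Cmax, or 10 microM, descending half-log.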

[1] = second compound 0.1 µM, first compound 0.0316 µM
[2] = second compound 0.1 µM, first compound 0.1 µM
[3] = second compound 0.316 µM, first compound 0.0316 µM
[4] = second compound 0.316 µM, first compound 0.1 µM
[5] = second compound 1 µM, first compound 0.0316 µM
[6] = second compound 1 µM, first compound 0.1 µM
[7] = second compound 3.16 µM, first compound 0.0316 µM
[8] = second compound 3.16 µM, first compound 0.1 µM
[9] = second compound 10 µM, first compound 0.0316 µM
[10] = second compound 10 µM, first compound 0.1 µM
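Also: cells exposed to agents for seven days before viability read.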
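For viability, T/C in this document: 100% = DMSO vehicle control wells and lower values mean fewer viable cells.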

## Cn1nccc1Nc1nccc(-c2cc3c(s2)C(C)(C)N(CCN2CCOCC2)C3=O)n1 + COc1cc2nc(C)nc(NC(C)c3cc(N)cc(C(F)(F)F)c3)c2cc1OC1CCOC1
Second compound 0.1 µM
  IC50: 1720 nM
Second compound 0.316 µM
  IC50: 2010 nM
Second compound 1 µM
  IC50: 1850 nM
Second compound 3.16 µM
  IC50: 2720 nM
Second compound 10 µM
  IC50: < 31.6 nM
[1]
  viability, T/C: 87.1%
[2]
  viability, T/C: 97.3%
Second compound 0.1 µM, first compound 0.316 µM
  viability, T/C: 76.2%
Second compound 0.1 µM, first compound 1 µM
  viability, T/C: 59.4%
Second compound 0.1 µM, first compound 3.16 µM
  viability, T/C: 40.8%
Second compound 0.1 µM, first compound 10 µM
  viability, T/C: 33.8%
[3]
  viability, T/C: 89.2%
[4]
  viability, T/C: 91.4%
Second compound 0.316 µM, first compound 0.316 µM
  viability, T/C: 79.3%
Second compound 0.316 µM, first compound 1 µM
  viability, T/C: 60%
Second compound 0.316 µM, first compound 3.16 µM
  viability, T/C: 42.9%
Second compound 0.316 µM, first compound 10 µM
  viability, T/C: 41%
[5]
  viability, T/C: 99.7%
[6]
  viability, T/C: 96%
Second compound 1 µM, first compound 0.316 µM
  viability, T/C: 75.5%
Second compound 1 µM, first compound 1 µM
  viability, T/C: 60.5%
Second compound 1 µM, first compound 3.16 µM
  viability, T/C: 35.9%
Second compound 1 µM, first compound 10 µM
  viability, T/C: 48.4%
[7]
  viability, T/C: 107%
[8]
  viability, T/C: 74%
Second compound 3.16 µM, first compound 0.316 µM
  viability, T/C: 77.9%
Second compound 3.16 µM, first compound 1 µM
  viability, T/C: 56.1%
Second compound 3.16 µM, first compound 3.16 µM
  viability, T/C: 42.4%
Second compound 3.16 µM, first compound 10 µM
  viability, T/C: 47.2%
[9]
  viability, T/C: 39.3%
[10]
  viability, T/C: 41.3%
Second compound 10 µM, first compound 0.316 µM
  viability, T/C: 34.7%
Second compound 10 µM, first compound 1 µM
  viability, T/C: 27.6%
Second compound 10 µM, first compound 3.16 µM
  viability, T/C: 15.2%
Second compound 10 µM, first compound 10 µM
  viability, T/C: 4.25%

## CC(C)n1nc(-c2ccc3oc(N)nc3c2)c2c(N)ncnc21 + C=CC(=O)N1CCN(c2nc(=O)n(-c3c(C)ccnc3C(C)C)c3nc(-c4c(O)cccc4F)c(F)cc23)C(C)C1
Second compound 0.1 µM
  IC50: > 100 nM
Second compound 0.316 µM
  IC50: 27.1 nM
Second compound 1 µM
  IC50: 29.5 nM
Second compound 3.16 µM
  IC50: > 100 nM
Second compound 10 µM
  IC50: > 100 nM
Second compound 0.1 µM, first compound 0.000316 µM
  viability, T/C: 88.4%
Second compound 0.1 µM, first compound 0.001 µM
  viability, T/C: 91.7%
Second compound 0.1 µM, first compound 0.00316 µM
  viability, T/C: 64.8%
Second compound 0.1 µM, first compound 0.01 µM
  viability, T/C: 63.4%
[1]
  viability, T/C: 50.8%
[2]
  viability, T/C: 56.2%
Second compound 0.316 µM, first compound 0.000316 µM
  viability, T/C: 105%
Second compound 0.316 µM, first compound 0.001 µM
  viability, T/C: 94.3%
Second compound 0.316 µM, first compound 0.00316 µM
  viability, T/C: 76.6%
Second compound 0.316 µM, first compound 0.01 µM
  viability, T/C: 57.2%
[3]
  viability, T/C: 45.4%
[4]
  viability, T/C: 49.8%
Second compound 1 µM, first compound 0.000316 µM
  viability, T/C: 94.4%
Second compound 1 µM, first compound 0.001 µM
  viability, T/C: 86.8%
Second compound 1 µM, first compound 0.00316 µM
  viability, T/C: 105%
Second compound 1 µM, first compound 0.01 µM
  viability, T/C: 64.2%
[5]
  viability, T/C: 48.4%
[6]
  viability, T/C: 49.7%
Second compound 3.16 µM, first compound 0.000316 µM
  viability, T/C: 87%
Second compound 3.16 µM, first compound 0.001 µM
  viability, T/C: 80.4%
Second compound 3.16 µM, first compound 0.00316 µM
  viability, T/C: 75.8%
Second compound 3.16 µM, first compound 0.01 µM
  viability, T/C: 59.2%
[7]
  viability, T/C: 51%
[8]
  viability, T/C: 51.5%
Second compound 10 µM, first compound 0.000316 µM
  viability, T/C: 88.2%
Second compound 10 µM, first compound 0.001 µM
  viability, T/C: 84.9%
Second compound 10 µM, first compound 0.00316 µM
  viability, T/C: 67.8%
Second compound 10 µM, first compound 0.01 µM
  viability, T/C: 72%
[9]
  viability, T/C: 54.9%
[10]
  viability, T/C: 58%
